How the values were obtained:
[1] = tested on: ulcerative colitis model (dextran sodium sulphate); test: Effect Example 3: therapeutic effect on ulcerative colitis, dextran sodium sulphate model, oral gavage, 7 days; format: in vivo, C57 mice; conditions: 40 mg/kg oral gavage; for Average colon length of mice: day 7
Method: Fifty 10-week-old male C57 mice, SPF class animal house, temperature 20-26° C., humidity 40%-70%, alternating light-dark periods (12 h/12 h).
(§1) Quarantine-qualified animals with similar weights were selected for the experiment.
Mice in the blank control group were given normal drinking water throughout the experiment. The other 9 groups of mice were given drinking water containing 2% dextran sodium sulphate from day 1 to day 7. All groups were administered by oral gavage once a day according to table 10, until the end of the experiment.
(§2) (1) The mice were weighed daily.
(2) Blood samples were collected from the orbital vein on day 7 and stored at −80° C.
(3) On day 7, the mice were sacrificed by cervical vertebra dislocation, the colon was removed and a small amount of fecal was taken from the colon and left as a sample. The colon length and colon weight were measured. A portion of the colon and the fecal sample was stored at −80° C.

[2] = tested on: ulcerative colitis model (dextran sodium sulphate); test: Effect example 2: therapeutic effect on ulcerative colitis, dextran sodium sulphate model, oral gavage, 14 days; format: in vivo, C57 mice; conditions: for Weight effect compared with the positive control drug SASP (in words): 40 mg/kg oral gavage vs SASP 30 mg/kg oral gavage; for Effect on the reduction of weight in mice (in words): 40 mg/kg oral gavage, vs ulcerative colitis model group; for Average colon length of mice: day 14
Method: Thirty-five 10-week-old male C57 mice, SPF class animal house, temperature 20-26° C., humidity 40%-70%, alternating light-dark periods (12 h/12 h).
as §1
Mice in the blank control group were given normal drinking water throughout the experiment. The other 6 groups of mice were given drinking water containing 2% dextran sodium sulphate from day 1 to day 5, normal drinking water from day 6 to day 7, drinking water containing 2% dextran sodium sulphate from day 8 to day 12, and normal drinking water from day 13 to day 14. The experiment ended on day 14. All groups were administered by oral gavage once a day according to table 7, until the end of the experiment on day 14.
as §2
(2) Blood samples were collected from the orbital vein on day 14 and stored at −80° C.
(3) On day 14, the mice were sacrificed by cervical vertebra dislocation, the colon was removed and a small amount of fecal was taken from the colon and left as a sample. The colon length and colon weight were measured. A portion of the colon and the fecal sample was stored at −80° C.

[3] = Day 1, treatment group 40 mg/kg oral gavage
[4] = Day 2, treatment group 40 mg/kg oral gavage
[5] = Day 3, treatment group 40 mg/kg oral gavage
[6] = Day 4, treatment group 40 mg/kg oral gavage
[7] = Day 5, treatment group 40 mg/kg oral gavage
[8] = Day 6, treatment group 40 mg/kg oral gavage
[9] = Day 7, treatment group 40 mg/kg oral gavage
[10] = Day 8, treatment group 40 mg/kg oral gavage
[11] = Day 9, treatment group 40 mg/kg oral gavage
[12] = Day 10, treatment group 40 mg/kg oral gavage
[13] = Day 11, treatment group 40 mg/kg oral gavage
[14] = Day 12, treatment group 40 mg/kg oral gavage
[15] = Day 13, treatment group 40 mg/kg oral gavage
[16] = Day 14, treatment group 40 mg/kg oral gavage
[17] = treatment group 40 mg/kg oral gavage

Row | Structure (SMILES) | Average weight of mice ([1]; Day 1) [g] | Average weight of mice ([1]; Day 2) [g] | Average weight of mice ([1]; Day 3) [g] | Average weight of mice ([1]; Day 4) [g] | Average weight of mice ([1]; Day 5) [g] | Average weight of mice ([1]; Day 6) [g] | Average weight of mice ([1]; Day 7) [g] | Average colon length of mice [1] [cm] | Weight effect compared with the positive control drug SASP (in words) [2] | Effect on the reduction of weight in mice (in words) [2] | Average weight of mice [2, 3] [g] | Average weight of mice [2, 4] [g] | Average weight of mice [2, 5] [g] | Average weight of mice [2, 6] [g] | Average weight of mice [2, 7] [g] | Average weight of mice [2, 8] [g] | Average weight of mice [2, 9] [g] | Average weight of mice [2, 10] [g] | Average weight of mice [2, 11] [g] | Average weight of mice [2, 12] [g] | further results
1 | CC(=O)OC[C@H]1O[C@@H](OC2=C(C)OC(=C3CCN(C(C)=O)CC3)C2=O)[C@H](OC(C)=O)[C@@H](OC(C)=O)[C@@H]1OC(C)=O [Compound I-12] | 21.25 | 21.22 | 21.13 | 20.62 | 20.10 | 16.32 | 18.88 | 5.7 |  |  |  |  |  |  |  |  |  |  |  |  | 
2 | CC(C)=C1OC(C)=C(O[C@@H]2O[C@H](COC(=O)C(C)(C)C)[C@@H](OC(=O)C(C)(C)C)[C@H](OC(=O)C(C)(C)C)[C@H]2OC(=O)C(C)(C)C)C1=O [Compound I-6] |  |  |  |  |  |  |  |  | better than the positive control drug | significant improvement in the reduction of weight in mice | 26.9 | 26.94 | 26.9 | 26.9 | 26.64 | 26.2 | 24.52 | 24.38 | 24.42 | 24.42 | Average weight of mice [2, 13]: 24.66 g; Average weight of mice [2, 14]: 24.94 g; Average weight of mice [2, 15]: 24.72 g; Average weight of mice [2, 16]: 24.5 g; Average colon length of mice [2, 17]: 5.9 cm
3 | O=C(O)c1cc(/N=N/c2ccc(S(=O)(=O)Nc3ccccn3)cc2)ccc1O [SASP, salazosulfapyridine, reference compound] |  |  |  |  |  |  |  |  |  |  |  |  |  |  |  |  |  |  |  |  | Average weight of mice ([2]; Day 1, positive control group 30 mg/kg oral gavage): 26.8 g; Average weight of mice ([2]; Day 2, positive control group 30 mg/kg oral gavage): 26.86 g; Average weight of mice ([2]; Day 3, positive control group 30 mg/kg oral gavage): 26.82 g; Average weight of mice ([2]; Day 4, positive control group 30 mg/kg oral gavage): 26.8 g; Average weight of mice ([2]; Day 5, positive control group 30 mg/kg oral gavage): 26.52 g; Average weight of mice ([2]; Day 6, positive control group 30 mg/kg oral gavage): 25.74 g; Average weight of mice ([2]; Day 7, positive control group 30 mg/kg oral gavage): 24.38 g; Average weight of mice ([2]; Day 8, positive control group 30 mg/kg oral gavage): 22.92 g; Average weight of mice ([2]; Day 9, positive control group 30 mg/kg oral gavage): 22.3 g; Average weight of mice ([2]; Day 10, positive control group 30 mg/kg oral gavage): 22.34 g; Average weight of mice ([2]; Day 11, positive control group 30 mg/kg oral gavage): 22.68 g; Average weight of mice ([2]; Day 12, positive control group 30 mg/kg oral gavage): 23.14 g; Average weight of mice ([2]; Day 13, positive control group 30 mg/kg oral gavage): 23.52 g; Average weight of mice ([2]; Day 14, positive control group 30 mg/kg oral gavage): 23.52 g; Average colon length of mice ([2]; positive control group 30 mg/kg oral gavage): 6.0 cm
4 | COC(=O)[C@H]1O[C@@H](OC2=C(C)OC(=C(C)C)C2=O)[C@H](OC(C)=O)[C@@H](OC(C)=O)[C@@H]1OC(C)=O [Compound I-5] |  |  |  |  |  |  |  |  | better than the positive control drug | significant improvement in the reduction of weight in mice | 26.9 | 26.92 | 26.88 | 26.9 | 26.58 | 26.32 | 25.3 | 23.6 | 23.24 | 23.24 | Average weight of mice [2, 13]: 24.2 g; Average weight of mice [2, 14]: 24.48 g; Average weight of mice [2, 15]: 24.5 g; Average weight of mice [2, 16]: 24.68 g; Average colon length of mice [2, 17]: 6.0 cm
5 | CCOC(=O)OC[C@H]1O[C@@H](OC2=C(C)OC(=C(C)C)C2=O)[C@H](O)[C@@H](O)[C@@H]1O [Compound I-7] | 21.47 | 21.62 | 21.18 | 20.82 | 20.13 | 20.07 | 19.88 | 5.4 |  |  |  |  |  |  |  |  |  |  |  |  | 
6 | CC(=O)OC[C@H]1O[C@@H](OC2=C(C)OC(=C3CCCC3)C2=O)[C@H](OC(C)=O)[C@@H](OC(C)=O)[C@@H]1OC(C)=O [Compound I-8] | 21.85 | 21.97 | 21.77 | 21.33 | 20.62 | 20.52 | 20.32 | 6.1 |  |  |  |  |  |  |  |  |  |  |  |  | Effect on the colon length (in words) [1]: can gradually restore the colon length
7 | CC(=O)OC[C@H]1O[C@@H](OC2=C(C)OC(=C3CCOCC3)C2=O)[C@H](OC(C)=O)[C@@H](OC(C)=O)[C@@H]1OC(C)=O [Compound I-10] | 21.95 | 21.60 | 21.18 | 21.27 | 20.90 | 20.13 | 19.25 | 5.8 |  |  |  |  |  |  |  |  |  |  |  |  | 
8 | CC(=O)OC[C@H]1O[C@@H](OC2=C(C)OC(=C3CCNCC3)C2=O)[C@H](OC(C)=O)[C@@H](OC(C)=O)[C@@H]1OC(C)=O [Compound I-11] | 21.62 | 21.30 | 21.10 | 20.97 | 20.32 | 19.93 | 19.30 | 6.2 |  |  |  |  |  |  |  |  |  |  |  |  | Effect on the colon length (in words) [1]: can gradually restore the colon length
9 | CC(=O)OC[C@H]1O[C@@H](OC2=C(C)OC(=C(C)C)C2=O)[C@H](OC(C)=O)[C@@H](OC(C)=O)[C@H]1OC(C)=O [Compound I-4, 4-O-[(2,3,4,6-tetra-O-acetyl)-β-D-galactosyl]-5-methyl-2-(1-methylethylidene)-3(2H)-furanone] |  |  |  |  |  |  |  |  | better than the positive control drug | significant improvement in the reduction of weight in mice | 26.72 | 26.76 | 26.72 | 26.72 | 26.44 | 26.36 | 24.82 | 23.44 | 23.3 | 23.3 | Average weight of mice [2, 13]: 24.02 g; Average weight of mice [2, 14]: 24.14 g; Average weight of mice [2, 15]: 24.5 g; Average weight of mice [2, 16]: 24.68 g; Average colon length of mice [2, 17]: 6.2 cm
10 | CC(=O)OC[C@H]1O[C@@H](OC2=C(C)OC(=C3CCCCC3)C2=O)[C@H](OC(C)=O)[C@@H](OC(C)=O)[C@@H]1OC(C)=O [Compound I-9] | 21.20 | 21.17 | 20.92 | 20.47 | 20.03 | 19.42 | 19.38 | 6.3 |  |  |  |  |  |  |  |  |  |  |  |  | Effect on the colon length (in words) [1]: can gradually restore the colon length
